In PMC7132281 (Proceedings of the National Academy of Sciences of the …, 2020):

Target: T1, AtaC (Vnz_27310) (Streptomyces venezuelae, UniProt F2R7Z6, D269N)
T1 sequence (F2R7Z6 1-401 D269N): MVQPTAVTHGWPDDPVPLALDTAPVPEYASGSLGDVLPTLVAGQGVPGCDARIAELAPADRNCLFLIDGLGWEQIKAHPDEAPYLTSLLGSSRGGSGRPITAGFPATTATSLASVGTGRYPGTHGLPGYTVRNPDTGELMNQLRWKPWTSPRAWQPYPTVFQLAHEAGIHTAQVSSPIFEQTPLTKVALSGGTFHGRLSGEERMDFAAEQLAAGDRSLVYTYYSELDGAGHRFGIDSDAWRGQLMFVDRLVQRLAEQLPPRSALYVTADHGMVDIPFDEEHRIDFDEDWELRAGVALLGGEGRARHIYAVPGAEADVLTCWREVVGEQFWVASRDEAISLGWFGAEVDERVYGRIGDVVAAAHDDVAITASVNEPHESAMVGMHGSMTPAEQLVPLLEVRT
Test: ITC
Assay type: binding

## Nc1ncnc2c1ncn2[C@@H]1O[C@@H]2COP(=O)(O)O[C@H]3[C@@H](O)[C@H](n4cnc5c(N)ncnc54)O[C@@H]3COP(=O)(O)O[C@H]2[C@H]1O [c-di-AMP]
  Kd: 949 ± 360 nM
